Assays:
XIAP BIR-3 = target: T1, XIAP BIR-3 (Homo sapiens, UniProt P98170); test: Fluorescence polarization binding to XIAP BIR-3 with labeled peptide AbuRPF-K(5-Fam)-NH2; conditions: 40 nM BIR3, 5 nM labeled peptide, reported as ranges
T1 construct: 40 nM of the respective IAP BIR3
Protocol: (§1) The binding affinities of the compounds are reported as a KD value (μM). Briefly, various concentrations of test peptides were mixed with 5 nM of the fluorescently labeled peptide (i.e., a mutated N-terminal Smac peptide—AbuRPF-K(5-Fam)-NH2) and 40 nM of the respective IAP BIR3 for 15 min at RT in […] of 0.1M Potassium Phosphate buffer, pH 7.5 containing 100 mg/ml bovine g-globulin. Following incubation, the polarization values (mP) were measured on a Victor2V (available from PerkinElmer Life Sciences) using a 485 nm excitation filter and a 520 nm emission filter. The reported binding affinities (KD values) are supplied as ranges (A=<0.1 μM, B=0.1 μM to 1 μM, C=>1 μM to 10 μM, D=>10 μM).

cIAP-1 BIR-3 = target: T2, cIAP-1 BIR-3 (Homo sapiens, UniProt Q13490); test: Fluorescence polarization binding to cIAP-1 BIR-3 with labeled peptide AbuRPF-K(5-Fam)-NH2; conditions: 40 nM BIR3, 5 nM labeled peptide, reported as ranges, read-out: KD (c-IAP-1 BIR3)
T2 construct: 40 nM of the respective IAP BIR3
Protocol: as §1

[1] = tested on: ovarian cancer cell line, SK-OV-3; test: SK-OV-3 cell growth inhibition (MTT, 72 hrs); assay type: cell-based; conditions: Homo sapiens, concentration giving 50% cell survival, reported as ranges
Protocol: Compounds of the invention also were tested for their ability to inhibit the growth of an ovarian cancer cell line, SK-OV-3. A known assay previously used for measuring cell growth (as described in Hansen, M. B., Nielsen, S. E., and Berg, K. (1989) J. Immunol. Methods 119, 203-210 and incorporated herein by reference in its entirety) was used. Briefly, SK-OV-3 cells are seeded in 96-well plates in McCoy's medium containing 10% fetal bovine serum albumin (5,000 per well) and incubated overnight at 37° C. The next day, test compounds are added at various concentrations (0.003-10 μM) and the plates are incubated at 37° C. for an additional 72 hrs. This incubation time was considered to be optimal for measuring inhibitory effects of the different compounds tested. 50 microliters of 5 mg/mL MTT reagent is added to each well and the plates are incubated at 37° C. for another three (3) hours. At the end of the three (3) hour incubation period, 50 microliters of DMSO is added to each well to dissolve cells and the optical density (OD) of the wells is measured with a microplate reader (Victor^2 1420, Wallac, Finland) at 535 nm. Cell survival (CS) was calculated using the following equation: CS=(OD treated well/mean OD control wells)×100%.
The CC50 (reported in the following tables), is defined as the drug concentration that results in 50% cell survival (CS), and is derived by calculating the point where the dose-response curve crosses the 50% CS point using GraphPad Prism. The reported CC50 values are supplied as ranges (A=<0.1 μM, B=0.1 μM to 1 μM, C=>1 μM to 10 μM, D=>10 μM).

T1 sequence (P98170 241-356 limits assumed): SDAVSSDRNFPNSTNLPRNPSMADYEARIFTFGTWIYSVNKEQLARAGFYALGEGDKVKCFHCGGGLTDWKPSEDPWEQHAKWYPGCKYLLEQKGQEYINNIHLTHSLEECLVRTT
T2 sequence (Q13490 253-363 limits assumed): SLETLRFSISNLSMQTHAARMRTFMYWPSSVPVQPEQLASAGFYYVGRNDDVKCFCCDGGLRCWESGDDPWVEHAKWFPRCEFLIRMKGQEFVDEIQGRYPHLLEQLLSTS

Compound	Kd (XIAP BIR-3)	Kd (cIAP-1 BIR-3)	CC50 [1]
CN[C@@H](C)C(=O)N[C@H](C(=O)N1CC[C@@H]2[C@H]1[C@@H](OCc1ccc(F)cc1)CN2C(=O)CC(C)C)C(C)(C)C [Example 39, N-{1-[6-(4-Fluoro-benzyloxy)-4-(3-methyl-butyryl)-hexahydro-pyrrolo[3,2-b]pyrrole-1-carbonyl]-2,2-dimethyl-propyl}-2-methylamino-propionamide]	< 100 nM	< 100 nM	< 100 nM
CN[C@@H](C)C(=O)N[C@H](C(=O)N1CC[C@@H]2[C@H]1[C@@H](Oc1ccccc1)CN2S(C)(=O)=O)C(C)C [Example 3, N-[1-(4-Methanesulfonyl-6-phenoxy-hexahydro-pyrrolo[3,2-b]pyrrole-1-carbonyl)-2-methyl-propyl]-2-methylamino-propionamide]	< 100 nM	< 100 nM	< 100 nM
CN[C@@H](C)C(=O)N[C@H](C(=O)N1CC[C@H]2NC[C@H](Oc3cccc4c3CCCC4)[C@H]21)C1CCCCC1 [Example 5, N-{1-Cyclohexyl-2-oxo-2-[6-(5,6,7,8-tetrahydro-naphthalen-1-yloxy)-hexahydro-pyrrolo[3,2-b]pyrrol-1-yl]-ethyl}-2-methylamino-propionamide]	100 to 1000 nM	< 100 nM	100 to 1000 nM
CN[C@@H](C)C(=O)N[C@H](C(=O)N1CC[C@H]2NC[C@H](Oc3cccc4ccccc34)[C@H]21)C1CCCCC1 [Example 8, N-{1-Cyclohexyl-2-[6-(naphthalen-1-yloxy)-hexahydro-pyrrolo[3,2-b]pyrrol-1-yl]-2-oxo-ethyl}-2-methylamino-propionamide]	< 100 nM	< 100 nM	100 to 1000 nM
CN[C@@H](C)C(=O)N[C@H](C(=O)N1CC[C@@H]2[C@H]1[C@@H](Oc1ccc(F)c(F)c1)CN2S(C)(=O)=O)C1CCCCC1 [Example 13, N-{1-Cyclohexyl-2-[6-(3,4-difluoro-phenoxy)-4-methanesulfonyl-hexahydro-pyrrolo[3,2-b]pyrrol-1-yl]-2-oxo-ethyl}-2-methylamino-propionamide]	< 100 nM	< 100 nM	< 100 nM
CN[C@@H](C)C(=O)N[C@H](C(=O)N1CC[C@@H]2[C@H]1[C@@H](OCc1ccc(F)cc1)CN2S(=O)(=O)CC(C)C)C(C)(C)C [Example 38, N-{1-[6-(4-Fluoro-benzyloxy)-4-(2-methyl-propane-1-sulfonyl)-hexahydro-pyrrolo[3,2-b]pyrrole-1-carbonyl]-2,2-dimethyl-propyl}-2-methylamino-propionamide]	< 100 nM	< 100 nM	< 100 nM
CN[C@@H](C)C(=O)N[C@H](C(=O)N1CC[C@@H]2[C@H]1[C@@H](OC(=O)N1CCCC1)CN2C(=O)NC(C)C)C(C)(C)C [Example 58, Pyrrolidine-1-carboxylic acid 4-[3,3-dimethyl-2-(2-methylamino-propionylamino)-butyryl]-1-isopropylcarbamoyl-octahydro-pyrrolo[3,2-b]pyrrol-3-yl ester]	1000 to 10000 nM	100 to 1000 nM	1000 to 10000 nM
CN[C@@H](C)C(=O)N[C@H](C(=O)N1CC[C@@H]2[C@H]1[C@@H](OC(=O)NC1CCCC1)CN2C(=O)NC(C)C)C(C)(C)C [Example 56, Cyclopentyl-carbamic acid 4-[3,3-dimethyl-2-(2-methylamino-propionylamino)-butyryl]-1-isopropylcarbamoyl-octahydro-pyrrolo[3,2-b]pyrrol-3-yl ester]	100 to 1000 nM	< 100 nM	100 to 1000 nM
CN[C@@H](C)C(=O)N[C@H](C(=O)N1CC[C@@H]2[C@H]1[C@@H](OC(=O)N(c1ccccc1)c1ccccc1)CN2C(=O)NC(C)C)C(C)(C)C [Example 48, Diphenyl-carbamic acid 4-[3,3-dimethyl-2-(2-methylamino-propionylamino)-butyryl]-1-isopropylcarbamoyl-octahydro-pyrrolo[3,2-b]pyrrol-3-yl ester]	100 to 1000 nM	< 100 nM	100 to 1000 nM
CN[C@@H](C)C(=O)N[C@H](C(=O)N1CC[C@@H]2[C@H]1[C@@H](COc1ccc(F)c(F)c1)CN2C(=O)C(C)=O)C(C)(C)C [Example 66, N-{1-[6-(3,4-Difluoro-phenoxymethyl)-4-(2-oxo-propionyl)-hexahydro-pyrrolo[3,2-b]pyrrole-1-carbonyl]-2,2-dimethyl-propyl}-2-methylamino propionamide]	< 100 nM	< 100 nM	< 100 nM
CN[C@@H](C)C(=O)N[C@H](C(=O)N1CC[C@@H]2[C@H]1[C@@H](OCc1ccc(F)cc1)CN2C(=O)C(C)=O)C(C)(C)C [Example 42, N-{1-[6-(4-Fluoro-benzyloxy)-4-(2-oxo-propionyl)-hexahydro-pyrrolo[3,2-b]pyrrole-1-carbonyl]-2,2-dimethyl-propyl}-2-methylamino-propionamide]	< 100 nM	< 100 nM	< 100 nM
CN[C@@H](C)C(=O)N[C@H](C(=O)N1CC[C@@H]2[C@H]1[C@@H](OC(=O)Nc1cccc3ccccc13)CN2C(=O)NC(C)C)C(C)(C)C [Example 49, Naphthalen-1-yl-carbamic acid 4-[3,3-dimethyl-2-(2-methylamino-propionylamino)-butyryl]-1-isopropylcarbamoyl-octahydro-pyrrolo[3,2-b]pyrrol-3-yl ester]	100 to 1000 nM	< 100 nM	< 100 nM
CN[C@@H](C)C(=O)N[C@H](C(=O)N1CC[C@H]2NC[C@H](OCc3ccc(F)cc3)[C@H]21)C(C)(C)C [Example 35, N-{1-[6-(4-Fluoro-benzyloxy)-hexahydro-pyrrolo[3,2-b]pyrrole-1-carbonyl]-2,2-dimethyl-propyl}-2-methylamino-propionamide ester]	100 to 1000 nM	< 100 nM	< 100 nM
CN[C@@H](C)C(=O)N[C@H](C(=O)N1CC[C@@H]2[C@H]1[C@@H](COc1ccc(F)c(F)c1)CN2C(=O)C1CC1)C(C)(C)C [Example 69, N-{1-[4-Cyclopropanecarbonyl-6-(3,4-difluoro-phenoxymethyl)-hexahydro-pyrrolo[3,2-b]pyrrole-1-carbonyl]-2,2-dimethyl-propyl}-2-methylamino propionamide]	100 to 1000 nM	< 100 nM	< 100 nM
CN[C@@H](C)C(=O)N[C@H](C(=O)N1CC[C@@H]2[C@H]1[C@@H](OC(=O)N(C)c1ccccc1)CN2C(=O)NC(C)C)C(C)(C)C [Example 50, Methyl-phenyl-carbamic acid 4-[3,3-dimethyl-2-(2-methylamino-propionylamino)-butyryl]-1-isopropylcarbamoyl-octahydro-pyrrolo[3,2-b]pyrrol-3-yl ester]	100 to 1000 nM	< 100 nM	100 to 1000 nM
CN[C@@H](C)C(=O)N[C@H](C(=O)N1CC[C@@H]2[C@H]1[C@@H](COc1ccc(F)c(F)c1)CN2C(=O)OC)C(C)(C)C [Example 70, 3-(3,4-Difluoro-phenoxymethyl)-4-[3.3-dimethyl-2-(2-methylaminopropionylamino)-butyryl]-hexahydro-pyrrolo[3,2-b]pyrrole-1-carboxylic acid methyl ester]	< 100 nM	< 100 nM	< 100 nM
CN[C@@H](C)C(=O)N[C@H](C(=O)N1CC[C@@H]2[C@H]1[C@@H](OC(=O)N1CCOCC1)CN2C(=O)NC(C)C)C(C)(C)C [Example 60, Morpholine-4-carboxylic acid 4-[3,3-dimethyl-2-(2-methylamino-propionylamino)-butyryl]-1-isopropylcarbamoyl-octahydro-pyrrolo[3,2-b]pyrrol-3-yl ester]	1000 to 10000 nM	< 100 nM	1000 to 10000 nM
CN[C@@H](C)C(=O)N[C@H](C(=O)N1CC[C@@H]2[C@H]1[C@@H](OCc1ccc(F)cc1)CN2C(=O)NCc1ccccc1)C(C)(C)C [Example 30, 4-[3,3-Dimethyl-2-(2-methylamino-propionylamino)-butyryl]-3-(4-fluoro-benzyloxy)-hexahydro-pyrrolo[3,2-b]pyrrole-1-carboxylic acid benzylamide]	< 100 nM	< 100 nM	< 100 nM
